According to ChEMBL document CHEMBL1123652, “Optimization and in vivo evaluations of a series of small, potent, and specific renin inhibitors containing a novel Leu-Val replacement” (J Med Chem, 1987):

What was measured:
Renin = target: T1, Renin (Homo sapiens, UniProt P00797); assay: Evaluated in vitro for inhibitory potency against renin.
T1 sequence (P00797 whole entry): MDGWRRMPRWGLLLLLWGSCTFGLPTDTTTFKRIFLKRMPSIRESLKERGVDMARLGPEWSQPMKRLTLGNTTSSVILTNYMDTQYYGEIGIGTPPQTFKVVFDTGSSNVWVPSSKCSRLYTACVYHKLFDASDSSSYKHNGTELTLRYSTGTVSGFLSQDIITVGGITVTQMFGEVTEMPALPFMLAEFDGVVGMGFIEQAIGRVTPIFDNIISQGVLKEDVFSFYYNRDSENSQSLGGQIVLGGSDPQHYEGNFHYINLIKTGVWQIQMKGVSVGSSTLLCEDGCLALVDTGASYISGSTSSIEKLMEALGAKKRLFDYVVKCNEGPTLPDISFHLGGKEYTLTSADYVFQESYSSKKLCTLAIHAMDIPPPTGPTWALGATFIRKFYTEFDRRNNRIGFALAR

Cathepsin D (Bos taurus) [1] = target: T2, Cathepsin D (Bos taurus) (UniProt P80209); assay: Evaluated for the percentage of inhibition of bovine cathepsin D at E-5M concentration
T2 sequence (whole entry): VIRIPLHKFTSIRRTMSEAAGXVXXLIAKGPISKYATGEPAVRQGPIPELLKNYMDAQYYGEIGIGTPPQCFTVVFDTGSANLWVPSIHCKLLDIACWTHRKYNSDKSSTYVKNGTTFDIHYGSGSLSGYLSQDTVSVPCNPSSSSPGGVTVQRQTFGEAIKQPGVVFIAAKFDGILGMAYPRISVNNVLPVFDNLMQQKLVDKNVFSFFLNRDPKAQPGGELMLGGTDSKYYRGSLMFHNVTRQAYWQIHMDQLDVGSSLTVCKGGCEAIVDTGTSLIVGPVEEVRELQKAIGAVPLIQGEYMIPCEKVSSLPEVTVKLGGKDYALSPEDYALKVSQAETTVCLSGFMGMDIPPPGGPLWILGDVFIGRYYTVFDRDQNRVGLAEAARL

Pepsin A (Sus scrofa) [2] = target: Pepsin A (Sus scrofa) (UniProt P00791); assay: Evaluated for the percentage of inhibition of porcine pepsin at E-5M concentration
Pepsin A (Sus scrofa), sequence (P00791 60-385 limits assumed): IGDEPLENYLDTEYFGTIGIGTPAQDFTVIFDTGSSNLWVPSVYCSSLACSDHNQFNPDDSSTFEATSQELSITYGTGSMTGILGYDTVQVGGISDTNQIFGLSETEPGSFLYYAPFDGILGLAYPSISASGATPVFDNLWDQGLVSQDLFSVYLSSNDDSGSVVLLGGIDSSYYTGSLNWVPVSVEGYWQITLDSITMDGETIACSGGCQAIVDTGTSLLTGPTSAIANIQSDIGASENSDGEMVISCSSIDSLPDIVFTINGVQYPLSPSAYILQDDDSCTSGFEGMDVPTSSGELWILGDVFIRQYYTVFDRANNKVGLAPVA

Renin (Homo sapiens) [3] = target: T3, Renin (Homo sapiens) (UniProt P00797); assay: Evaluated in vitro for inhibitory potency against renin at 10e-6 M
T3 sequence (whole entry): T1 sequence (P00797 whole entry)

Cathepsin D (Bos taurus) [4] = target: T2, Cathepsin D (Bos taurus); assay: Compound is evaluated for the percentage of inhibition of […] 10e-5 M concentration in, bovine cathepsin D
Pepsin A (Sus scrofa) [5] = target: Pepsin A (Sus scrofa) (UniProt P00791); assay: Compound is evaluated for the percentage of inhibition of […] 10 e-5M concentration in porcine pepsin
Renin (Homo sapiens) [6] = target: T3, Renin (Homo sapiens); assay: Evaluated in vitro for inhibitory potency against renin at 10e-5 M

SMILES	IC50 (Renin) [nM]	inhibition (Cathepsin D (Bos taurus) [1]) [%]	inhibition (Pepsin A (Sus scrofa) [2]) [%]	further results
CC(C)S(=O)(=O)C[C@H](O)[C@H](CC1CCCCC1)NC(=O)C(Cc1c[nH]cn1)NC(=O)[C@@H](Cc1ccccc1)NC(=O)OC(C)(C)C (stereo not given in full)	150	0	0	
CC(C)S(=O)(=O)C[C@H](O)[C@H](CC1CCCCC1)NC(=O)[C@H](CCCCN)NC(=O)[C@H](Cc1ccccc1)NC(=O)OC(C)(C)C				inhibition (Renin (Homo sapiens) [3]): 34%
CC(=O)NCCCC[C@H](NC(=O)[C@H](Cc1ccccc1)NC(=O)OC(C)(C)C)C(=O)N[C@@H](CC1CCCCC1)[C@@H](O)CS(=O)(=O)C(C)C	300			
CC(C)C(=O)N[C@H](C(=O)N[C@@H](Cc1c[nH]cn1)C(=O)N[C@@H](CC1CCCCC1)[C@@H](O)CS(=O)(=O)C(C)C)[C@@H](C)OCc1ccccc1	10			
CC(C)(C)OC(=O)N[C@@H](Cc1ccccc1)C(=O)N[C@@H](Cc1c[nH]cn1)C(=O)N[C@@H](CC1CCCCC1)[C@@H](O)CSC1CCCCC1	4			inhibition (Cathepsin D (Bos taurus) [4]): 0%; inhibition (Pepsin A (Sus scrofa) [5]): 9%
CC(C)(C)OC(=O)N[C@@H](Cc1ccccc1)C(=O)N[C@@H](Cc1c[nH]cn1)C(=O)N[C@@H](CC1CCCCC1)[C@H](O)CSC1CCCCC1	100			
CC(C)S(=O)(=O)C[C@H](O)[C@H](CC1CCCCC1)NC(=O)[C@H](Cc1c[nH]cn1)NC(=O)[C@H](Cc1ccccc1)NC(=O)CC(C)(C)C [listing 1 of 3 here]		0	0	
O=C(COc1ccccc1)NC(Cc1c[nH]cn1)C(=O)N[C@@H](CC1CCCCC1)[C@@H](O)CSC1CCCCC1 (stereo not given in full)	430			
CC(C)S(=O)(=O)C[C@H](O)[C@H](CC1CCCCC1)NC(=O)[C@@H](NC(=O)[C@H](Cc1ccccc1)NC(=O)OC(C)(C)C)[C@@H](C)OCc1ccccc1	6	95	18	
O=C(NC(Cc1cnc[nH]1)C(=O)N[C@@H](CC1CCCCC1)[C@@H](O)CSC1CCCCC1)C(Cc1ccccc1)Cc1ccccc1 (stereo not given in full)	20			
O=C(NC(Cc1cnc[nH]1)C(=O)N[C@@H](CC1CCCCC1)[C@@H](O)CS(=O)(=O)C1CCCCC1)C(Cc1ccccc1)Cc1ccccc1 (stereo not given in full)	40			
CC(C)(C)OC(=O)NC(Cc1c[nH]cn1)C(=O)N[C@@H](CC1CCCCC1)[C@@H](O)CS(=O)(=O)C1CCCCC1 (stereo not given in full)				inhibition (Renin (Homo sapiens) [6]): 5%
CSC[C@H](O)[C@H](CC1CCCCC1)NC(=O)[C@H](Cc1c[nH]cn1)NC(=O)[C@H](Cc1ccccc1)NC(=O)OC(C)(C)C	10			
CC(C)(C)OC(=O)N[C@@H](Cc1ccccc1)C(=O)N[C@@H](Cc1c[nH]cn1)C(=O)N[C@@H](CC1CCCCC1)[C@@H](O)CS(C)(=O)=O	40			
CC(C)C[C@H](NC(=O)[C@H](Cc1ccccc1)NC(=O)OC(C)(C)C)C(=O)N[C@@H](CC1CCCCC1)[C@@H](O)CS(=O)(=O)C(C)C	4			
CC(C)S(=O)(=O)C[C@H](O)[C@H](CC1CCCCC1)NC(=O)[C@H](Cc1c[nH]cn1)NC(=O)[C@H](Cc1ccccc1)NC(=O)CC(C)(C)C [listing 2 of 3 here]	3.5			
CC(C)S(=O)(=O)C[C@H](O)[C@H](CC1CCCCC1)NC(=O)[C@H](Cc1c[nH]cn1)NC(=O)[C@H](COCc1ccccc1)NC(=O)OC(C)(C)C	75			
CC(C)S(=O)(=O)C[C@H](O)[C@H](CC1CCCCC1)NC(=O)[C@H](Cc1c[nH]cn1)NC(=O)[C@H](Cc1ccccc1)NC(=O)OC(C)(C)C	2	0	0	
CC(C)S(=O)(=O)C[C@H](O)[C@H](CC1CCCCC1)NC(=O)[C@H](CCCN)NC(=O)[C@H](Cc1ccccc1)NC(=O)OC(C)(C)C				inhibition (Renin (Homo sapiens) [3]): 43%
CC(C)S(=O)(=O)C[C@H](O)[C@H](CC1CCCCC1)NC(=O)[C@H](C)NC(=O)[C@H](Cc1ccccc1)NC(=O)OC(C)(C)C	70	55	0	

SMILES	IC50 (Renin) [nM]	inhibition (Cathepsin D (Bos taurus) [1]) [%]	inhibition (Pepsin A (Sus scrofa) [2]) [%]	further results
CCOC(=O)N[C@H](C(=O)N[C@@H](Cc1c[nH]cn1)C(=O)N[C@@H](CC1CCCCC1)[C@@H](O)CS(=O)(=O)C(C)C)[C@@H](C)OCc1ccccc1	20			
CC(C)S(=O)(=O)C[C@H](O)[C@H](CC1CCCCC1)NC(=O)[C@H](CO)NC(=O)[C@H](Cc1ccccc1)NC(=O)OC(C)(C)C	40	47	0	
O=C(NC(Cc1c[nH]cn1)C(=O)N[C@@H](CC1CCCCC1)[C@@H](O)CSC1CCCCC1)C(Cc1ccccc1)Cc1ccccc1 (stereo not given in full)		0	0	
CC(C)(C)OC(=O)N[C@@H](Cc1ccccc1)C(=O)N[C@@H](Cc1c[nH]cn1)C(=O)N[C@@H](Cc1ccccc1)[C@@H](O)CSC1CCCCC1	15	0	4	
CC(C)S(=O)(=O)C[C@H](O)[C@H](CC1CCCCC1)NC(=O)C(Cc1cnc[nH]1)NC(=O)C(Cc1ccccc1)Cc1ccccc1 (stereo not given in full)	70			
CC(C)S(=O)(=O)C[C@H](O)[C@H](CC1CCCCC1)NC(=O)C(Cc1c[nH]cn1)NC(=O)C(Cc1ccccc1)Cc1ccccc1 (stereo not given in full)		0	0	
CC(C)S(=O)(=O)C[C@H](O)[C@H](CC1CCCCC1)NC(=O)[C@H](CCO)NC(=O)[C@H](Cc1ccccc1)NC(=O)OC(C)(C)C	20			
CC(C)S(=O)(=O)C[C@H](O)[C@H](CC1CCCCC1)NC(=O)[C@H](Cc1ccccc1)NC(=O)[C@H](Cc1ccccc1)NC(=O)OC(C)(C)C	30	0	4	
CC(C)S(=O)(=O)C[C@H](O)[C@H](CC1CCCCC1)NC(=O)[C@H](Cc1c[nH]cn1)NC(=O)[C@H](Cc1ccccc1)NC(=O)CC(C)(C)C [listing 3 of 3 here]	3			
CC(C)S(=O)(=O)C[C@H](O)[C@H](CC1CCCCC1)NC(=O)[C@H](Cc1c[nH]cn1)NC(=O)[C@@H](NC(=O)OC(C)(C)C)[C@@H](C)OCc1ccccc1	5.5	0	0	
CC(C)SC[C@H](O)[C@H](CC1CCCCC1)NC(=O)[C@H](Cc1c[nH]cn1)NC(=O)[C@H](Cc1ccccc1)NC(=O)OC(C)(C)C	4			inhibition (Cathepsin D (Bos taurus) [4]): 0%; inhibition (Pepsin A (Sus scrofa) [5]): 0%
CC(C)S(=O)(=O)C[C@H](O)[C@H](CC1CCCCC1)NC(=O)[C@H](Cc1c[nH]cn1)NC(=O)[C@@H](N)[C@@H](C)OCc1ccccc1	300			
COc1ccc(C[C@H](NC(=O)OC(C)(C)C)C(=O)N[C@@H](Cc2c[nH]cn2)C(=O)N[C@@H](CC2CCCCC2)[C@@H](O)CS(=O)(=O)C(C)C)cc1	3	0	0	
CC(C)SC[C@H](O)[C@H](CC1CCCCC1)NC(=O)[C@H](C)NC(=O)[C@H](Cc1ccccc1)NC(=O)OC(C)(C)C	9.9			
CC(C)S(=O)(=O)C[C@H](O)[C@H](CC1CCCCC1)NC(=O)[C@H](CCCCNC(=O)OCc1ccccc1)NC(=O)[C@H](Cc1ccccc1)NC(=O)OC(C)(C)C	100			
CC(C)S(=O)(=O)C[C@H](O)[C@H](CC1CCCCC1)NC(=O)[C@H](CCCNC(=O)OCc1ccccc1)NC(=O)[C@H](Cc1ccccc1)NC(=O)OC(C)(C)C	60			
CC(C)CSC[C@H](O)[C@H](CC1CCCCC1)NC(=O)[C@H](Cc1c[nH]cn1)NC(=O)[C@H](Cc1ccccc1)NC(=O)OC(C)(C)C	6.5			
CC(C)CC(NC(=O)C(Cc1ccccc1)Cc1ccccc1)C(=O)N[C@@H](CC1CCCCC1)[C@@H](O)CS(=O)(=O)C(C)C (stereo not given in full)	25			
CCOC(=O)N[C@@H](Cc1ccccc1)C(=O)N[C@@H](Cc1c[nH]cn1)C(=O)N[C@@H](CC1CCCCC1)[C@@H](O)CS(=O)(=O)C(C)C	5			
CC(C)S(=O)(=O)C[C@H](O)[C@H](CC1CCCCC1)NC(=O)[C@@H](NC(=O)[C@H](Cc1ccccc1)NC(=O)OC(C)(C)C)[C@@H](C)O	8			
